# Values of other authors as cited in patent US8536188B2, “Dosing regimens for treatment of proliferative disorders comprising administration of sapacitabine” (Cyclacel Limited, priority 2007, dated 2013).
# Experiments:
# CTCL = CTCL patients
# [1] = test system: human tumour cells from various organs
# cytidine deaminase = cytidine deaminase (Homo sapiens, UniProt P32320); details: compared with ara-C
# NSCLC = details: 10 mg/m^2 intravenously over 30 minutes every three weeks
# colon cancer = details: model of colon cancer
# [2] = phase I, patients with a variety of cancers
# [3] = single dose in rodents; repeat dose up to 3 months in mice and dogs
# [4] = in vivo
# [5] = test system: ara-C-resistant tumour cell lines
# [6] = test system: cancer cell lines, including those lacking deoxycytidine kinase; details: variety of cancer cell lines
# Chain of cytidine deaminase (P32320 whole entry, species assumed): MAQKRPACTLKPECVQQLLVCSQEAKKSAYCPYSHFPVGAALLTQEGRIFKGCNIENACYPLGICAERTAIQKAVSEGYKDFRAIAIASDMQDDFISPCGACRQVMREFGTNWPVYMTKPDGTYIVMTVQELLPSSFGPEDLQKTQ
compound,measurement,setting,value
"Nc1ccn([C@@H]2O[C@H](CO)[C@@H](O)C2(F)F)c(=O)n1 [Gemcitabine, gemcitabine]",response rate,CTCL,60-70%
"N#C[C@H]1[C@H](O)[C@@H](CO)O[C@H]1n1ccc(N)nc1=O [CNDAC, 2′-C-Cyano-2′-deoxy-β-D-arabino-pentafuranosylcytosine]",activity against human tumour cells,[1],broad spectrum of activity
same,substrate of cytidine deaminase,cytidine deaminase,weak substrate
"N#CC1C(O)C(COP(=O)(O)OP(=O)(O)OP(=O)(O)O)OC1n1ccc(N)nc1=O (centres unmarked) [CNDACTP, CNDAC-triphosphate]",inhibition of DNA polymerase,DNA polymerase,potent inhibition
Nc1ccn([C@@H]2CO[C@H](CO)O2)c(=O)n1 [troxacitabine],activity in NSCLC,NSCLC,little activity
"CCCCCCCCCCCCCCCC(=O)Nc1ccn([C@@H]2O[C@H](CO)[C@@H](O)[C@@H]2C#N)c(=O)n1 [sapacitabine, 2′-cyano-2′-deoxy-N^4-palmitoyl-1-β-D-arabinofuranosylcytosine]",anticancer activity,colon cancer,strong anticancer activity
same,"increasing survival, compared with gemcitabine or 5-FU",colon cancer,superior to either gemcitabine or 5-FU
same,"preventing the spread of colon cancer metastases to the liver, compared with gemcitabine or 5-FU",colon cancer,superior to either gemcitabine or 5-FU
same,dose limiting toxicity,[2],myelosuppression
same,tolerability,[2],well tolerated
same,activity against human tumour cells,[1],broad spectrum of activity
same,effect on tumour xenografts,"human tumour xenograft; gastric, mammary, lung, colorectal and hepatic tumour xenografts",tumour regressions were observed
same,antitumour activity compared with 5′-DFUR and gemcitabine,human tumour xenograft; human xenografts of poorly differentiated gastric adenocarcinoma,much more potent antitumour activity than 5′-DFUR and gemcitabine
same,antitumour activity in human tumour xenograft models,human tumour xenograft; variety of tumours,active against a variety of tumours
same,activity in vivo against resistant P388 leukemia cell lines,"P388 leukemia; P388 resistant to mitomycin C, vincristine, 5-FU or cisplatin",active
same,antitumour activity compared with 5′-DFUR and gemcitabine,P388 leukemia; mouse P388 leukemia model,much more potent antitumour activity than 5′-DFUR and gemcitabine
same,major toxicities,[3],"hematopoietic, gastrointestinal, and testicular"
same,oral bioavailability,[4],good
same,cross-resistance to ara-C-resistant tumour cell lines,[5],partial cross-resistance
same,cytotoxicity of the parent drug,[6],cytotoxic
